From US20140378378A1, “ERYTHROPOIETIN-DERIVED PEPTIDE AND USE THEREFOR” (priority 2011, published 2014)

Tests used:
[1] = tested on: cerebral infarction induced Sprague-Dawley rat models; experiment: Cerebral infarction animal experiment: middle cerebral artery blockage/reperfusion, infarct volume by TTC dye; type: in vivo; conditions: 3000 IU/kg EPO injected right after reperfusion, measured after 24 hours
Description: In the present experiment, Spague-Dawley (SD) rats weighing about 280 g to about 330 g were used, which were purchased from Koatech Inc. (Seoul, Korea). The number of rats used was 39, wherein 13 of them were used as a control group and another 26 were divided into 13 in a MKX-2 treatment group and 13 in an EPO treatment group.
To induce cerebral infarction, a method of temporarily blocking a left middle cerebral artery and then reperfusing the same was used, and an intraluminal filament technique, which was modified from the Koizumi method was used. Then, each SD rat was anesthetized with a mixture gas of 70% nitrous oxide and 30% oxygen along with isoflurane (3% for induction and 2% for surgical procedure). During the surgery, an excision was made slightly leftwards from the center of the neck and the left common carotid artery was carefully separated without damaging surrounding vagus nerves. […]
The cerebral infarction area was measured by an image analyzer with LeicaQwin program (Leica Microsystem Image Solution Ltd., Cambridge, England) and a volume (mm^3) was calculated as a sum of infarct volumes (=infarct area of a slice×thickness) of the slices, and then an average and a standard deviation were calculated for each experimental group. […]

cardiomyocytes = experiment: Cell survival of cardiomyocytes, MTT assay, 72 hours in PBS free of serum and nutrients, hypoxic condition; type: cell-based, Wister rat; conditions: 0 nM = 100%
Description: An 8 weeks old Wister rat was injected with ketamine and pentobarbital to quickly kill the […], and the heart was quickly separated from the mouse. An aorta was used to perfuse with Ca free Krebs-Henseleit buffer (KHB) solution, which was pre-heated to a temperature of about 34° C. to about 37° C., in heart direction. Thereafter, the KHB solution was switched to Hank's balanced salt solution (HBSS:GIBCO, Grand Island, N.Y.) containing 0.15% class II collagenase (Cooper Biomedical, Malvern, Pa.) and then perfused for about 30 to about 40 minutes. Thereafter, the product obtained therefrom was washed twice with a cell culture medium (Dulbecco's modified Eagle's medium, DMEM). Ventricles and atria were separated therefrom, ventricular tissues were thoroughly chopped and then stirred thoroughly for about 5 minutes in a shaker filled with cell culture medium (DMEM) containing class II collagenase that was pre-heated to a temperature of about 34° C. to about 37° C. Connective tissues that were not dissolved were filtered and a collagenase-containing solution was washed twice with the cell culture medium (DMEM). The product obtained therefrom was gently centrifuged at a speed of 10 g for 2 minutes, a supernatant obtained therefrom was separated and removed, and cell components were washed three times with a cell culture medium (DMEM) solution containing 1% fetal bovine serum (FBS; Sigma Chemical, St. Louis, Mo.). Thereafter, the cells obtained therefrom were stabilized in a cell culture medium (DMEM), 10% FBS, 10 mM N-2-hydroxyethylpiperazine-N′-2-ethanesulfonic acid (HEPES, GIBCO Laboratories, Grand Island, N.Y.), 2 mM L-glutamine, penicilin-stereptomycin (100 IU/mL, GIBCO) for 60 minutes.
Thereafter, the cells were divided in a 6-well plate at a density of 20×10^3 cells/cm^2 and then bromodeoxyuridine (BrdU, 10 uM, Sigma-Aldrich) was added to the cell culture medium over 3 days to prevent the proliferation of fibroblasts and progenitor cells (Lokuta et al, 1994; Miragoli et al., 2006). The cells were cultured in an incubator under conditions of 95% of O2, 5% of CO2, and a temperature of 37° C. for the next experiment.
Cells were seeded in a 96-well plate at a density of 2×10^4 cells/well and 200 ul for each well. In this regard, cell confluence was set at about 70% to about 80%. After 24 hours, when the cells have been stabilized, a 26 gauge or 28 gauge needle was used to remove a preexisting medium from the wells. 200 ul of PBS free of serum and nutrients was added to each well, the wells were divided into erythropoietin (EPO) treatment groups and MKX-2 treatment groups, which were further divided into experimental groups according to concentrations of 0 nM, 0.1 nM, 1 nM, 10 nM, 100 nM, and 1000 nM and then treated with a drug for 72 hours in a hypoxic condition, and then the cells were subjected to an MTT assay to compare cell survival rates. The EPO used was an Eporon injection (Dong-A Pharmaceuticals, Korea). All experimental groups for each concentration included 7 wells.
After a predetermined treatment time, 3-[4,5-dimethylthiazol-2-yl]-2,5-diphenyl tetrazolium bromide (MIT, Sigma, M2128) that was dissolved in a phosphate buffered saline (PBS) and then sterilization filtered by using a membrane filter having a thickness of 0.22 um was added to each well in an amount of 100 ul at a concentration of 1 mg/ml. In this regard, an MTT reagent was used after wrapping the MTT reagent with a foil sheet to block from light. […]

Q: For “EPO: erythropoietin; the EPO used was an Eporon injection (Dong-A Pharmaceuticals, Korea)”, which “volume of cerebral infarction” value [1] is on record?
A: 246.27 ± 37.52 mm^3

Q: And the “cell survival rate compared with 0 nM” value (cardiomyocytes; 0.1 nM)?
A: not substantially different

Q: And the “cell survival rate compared with the initial condition” value (cardiomyocytes; 1 nM)?
A: substantially decreased

Q: And the cell survival rate (cardiomyocytes; 10 nM)?
A: 94.52 ± 4.36%

Q: What about the cell survival rate (cardiomyocytes; 100 nM) of the same substance?
A: 102.64 ± 2.69%

Q: And the cell survival rate (cardiomyocytes; 1000 nM)?
A: 106.97 ± 1.99%
